Reference: the supplement of paper PMC10307832

Columns and labels:
Test in all cases: relative viability (nuclei count vs DMSO), 5 days (fraction); higher = more cells survive
[1] = compound: CC1=CN=C(N=C1C2=CNC(=C2)C(=O)N[C@H](CO)C3=CC(=CC=C3)Cl)NC4=C(C=C(C=C4)F)Cl [VX-11e] + Cc1cc(Nc2cc(N3CCN(C)CC3)nc(Sc3ccc(NC(=O)C4CC4)cc3)n2)n[nH]1 [Tozasertib] (partner 0.1 µM)
Procedure, shortened: (§1)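 One day after seeding in 1536-well plates, lung cancer cell lines were dosed by pin tool. Dosing was either single-drug or a fixed anchor-drug dose plus five library-drug doses (not always all listed) in √10 steps. After 5 days, nuclei were stained in one fix-and-stain step and counted on 4× images, and relative viability is the nuclei count of treated wells over that of vehicle wells, given as the median of duplicate plates.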

[2] = compound: CC1=CN=C(N=C1C2=CNC(=C2)C(=O)N[C@H](CO)C3=CC(=CC=C3)Cl)NC4=C(C=C(C=C4)F)Cl [VX-11e] + CC(C)C[C@H](NC(=O)[C@H](Cc1ccccc1)NC(=O)c1cnccn1)B(O)O [Bortezomib] (partner 0.002 µM)
Procedure, shortened: as §1

[3] = compound: CC1=CN=C(N=C1C2=CNC(=C2)C(=O)N[C@H](CO)C3=CC(=CC=C3)Cl)NC4=C(C=C(C=C4)F)Cl [VX-11e] + Nc1ncn([C@H]2C[C@H](O)[C@@H](CO)O2)c(=O)n1 [Decitabine] (partner 2 µM)
Procedure, shortened: as §1

[4] = compound: CC1=CN=C(N=C1C2=CNC(=C2)C(=O)N[C@H](CO)C3=CC(=CC=C3)Cl)NC4=C(C=C(C=C4)F)Cl [VX-11e] + NC(=O)Nc1cc(-c2cccc(F)c2)sc1C(=O)N[C@H]1CCCNC1 [AZD7762] (partner 0.2 µM)
Procedure, shortened: as §1

Cell Line	relative viability ([1]; first compound 0.04 µM)	relative viability ([1]; first compound 0.1265 µM)	relative viability ([1]; first compound 0.4 µM)	relative viability ([1]; first compound 1.265 µM)	relative viability ([1]; first compound 4 µM)	relative viability ([2]; first compound 0.1265 µM)	relative viability ([2]; first compound 0.4 µM)	relative viability ([2]; first compound 4 µM)	relative viability ([3]; first compound 0.04 µM)	relative viability ([3]; first compound 0.1265 µM)	relative viability ([3]; first compound 0.4 µM)	relative viability ([3]; first compound 1.265 µM)	relative viability ([3]; first compound 4 µM)	relative viability ([4]; first compound 0.04 µM)	relative viability ([4]; first compound 0.1265 µM)	relative viability ([4]; first compound 0.4 µM)	relative viability ([4]; first compound 1.265 µM)	relative viability ([4]; first compound 4 µM)	relative viability ([2]; first compound 0.04 µM)	relative viability ([2]; first compound 1.265 µM)
NCI-H650	0.828	0.648	0.683	0.509	0.511	0.692	1.23	0.87	0.386	0.312	0.325	0.403	0.371	1.08	0.935	0.964	0.994	0.553	–	–
LXF-289	0.223	0.177	0.222	0.189	0.141	0.96	0.764	0.665	0.364	0.376	–	0.386	0.406	1.15	1.12	–	0.805	0.686	1.07	0.734
NCI-H838	0.233	0.279	0.263	0.213	0.193	0.703	0.608	0.515	0.44	0.428	0.447	0.474	0.524	0.784	0.962	0.728	0.977	0.834	0.985	0.527
A-427	0.181	0.18	0.132	0.143	0.16	0.955	1.06	0.479	0.559	0.518	0.569	0.645	0.443	0.743	0.641	0.633	0.566	0.438	1.11	1.04
NCI-H596	0.912	0.815	0.845	0.758	0.446	1	0.989	0.715	0.864	1.05	1.01	0.998	0.834	1.03	0.895	1.01	0.748	0.778	0.953	0.645
NCI-H2347	0.646	0.599	0.508	0.449	0.276	0.801	0.815	0.435	0.604	0.554	0.504	0.534	0.661	0.834	0.722	0.551	0.501	0.375	0.87	0.738
EKVX	0.385	0.398	0.342	0.257	0.163	0.977	0.951	0.406	0.331	0.397	0.298	0.394	0.232	0.634	0.74	0.764	0.723	0.448	1.06	1
HCC-78	–	0.538	0.386	0.324	0.487	0.491	0.505	0.441	0.721	0.698	0.676	0.775	0.786	0.58	0.814	0.725	0.371	0.527	0.565	0.227
NCI-H647	0.254	0.301	0.246	0.205	0.0828	0.964	0.584	0.477	0.378	0.355	0.349	0.537	0.449	0.347	0.573	–	0.426	0.215	0.892	0.491
NCI-H2126	0.828	0.78	–	0.666	0.6	1.06	1.01	1.02	0.561	0.608	0.558	0.614	0.573	0.844	0.972	0.795	1.01	0.861	–	1.14
EMC-BAC-2	0.313	0.272	0.373	0.382	0.353	1.01	1.14	0.858	1.02	0.958	0.653	1	0.588	1.2	0.96	1.13	1	0.855	1.04	1.02
NCI-H1755	0.59	0.487	0.513	0.527	0.402	0.931	0.884	0.608	0.7	0.736	0.665	0.716	0.661	0.434	0.333	0.341	0.513	0.359	0.965	0.923
ABC-1	0.137	0.219	0.175	0.123	0.188	0.246	0.262	0.263	1.11	–	0.992	1.06	0.977	0.988	0.785	0.711	0.779	0.572	0.268	0.263
H3255	0.732	0.698	0.562	0.595	0.724	0.857	0.657	0.64	0.667	0.603	0.482	0.48	0.332	0.745	0.834	0.859	0.923	0.825	0.709	0.612
NCI-H1915	0.42	0.392	0.401	0.366	0.295	0.923	1.03	0.757	0.246	0.264	0.25	0.264	0.238	0.719	0.719	0.596	0.791	0.554	1.02	0.939
NCI-H727	0.66	0.48	0.45	0.429	0.325	0.68	0.519	0.29	0.599	1.07	0.72	0.638	0.421	0.519	0.616	0.652	0.476	0.385	0.686	0.513
